{
  "source": "paper PMC10949195",
  "about": "“Exponential Combination of a and e/g Intracellular Peptide Libraries Identifies a Selective ATF3 Inhibitor” (ACS Chemical Biology, 2024)",
  "key": {"ATF3 [1]": {"target": "T1, ATF3 (Homo sapiens, UniProt P18847)", "T1 construct": "We focus on the selective targeting of the ATF3 leucine zipper dimerization domain using intracellular peptide library screening; made in house; host or cells: chemical solid-phase peptide synthesis (no expression host)", "T1 sequence (P18847 110-143)": "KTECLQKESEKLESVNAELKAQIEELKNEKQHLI", "assay": "CD thermal denaturation of peptide mixed 1:1 with ATF3", "format": "binding", "conditions": "peptide incubated with ATF3; CD signal at 222 nm, 1 °C increments; 150 μM total peptide; 10 mM potassium phosphate, 100 mM potassium fluoride, pH 7.0; two-state denaturation model", "source_text": "Following the observed significant increase in global secondary structure content for the ATF3-ATF3W_aeg complex relative to component peptides (Figure 6), we next analyzed the stability of the complex by undertaking thermal denaturation experiments (Figure 7). […] Moreover, consistent with spectral data, the clear increase from the average profile of the component peptides relative to that of the measured is most pronounced in the combined construct (Figure 7, red hash vs black). This provides robust additional evidence for a preferential interaction between ATF3 and ATF3W_aeg that is improved over either the core a or electrostatic e/g constructs.\nShown are thermal stabilities of peptide pairs measured via temperature dependence of the CD signal at 222 nm. The thermal denaturation profiles for (a) ATF3-ATF3W_a, (b) ATF3-ATF3W_eg, and (c) ATF3-ATF3W_aeg show a substantial increase in the transition midpoint (Tm = 59 °C) relative to component peptides (black vs red hash). Experiments were performed in 10 mM potassium phosphate and 100 mM potassium fluoride (pH 7.0). All spectra were recorded at 1 °C increments at a total peptide concentration of 150 μM and fitted to a two-state denaturation model.\nThermal denaturation experiments were performed at 150 μM total protein concentration in 10 mM potassium phosphate and 100 mM potassium fluoride, pH 7, using an Applied Photophysics Chirascan CD instrument (Leatherhead, UK) as previously described.[23]"}, "[2]": {"system": "M2 macrophages differentiated from the human THP-1 monocytic cell line", "assay": "THP-1 polarization assay and CCL-4 ELISA", "format": "cell-based", "conditions": "M2 macrophages from THP-1 (IL-4 polarized); 20 μM peptide with NLS-TAT appendage; 48 h; versus untreated", "source_text": "ATF3 is a transcriptional repressor that regulates both the extent and duration of pro-inflammatory gene expression.[17] Specifically, ATF3 has been implicated in the transcriptional repression of chemokines including chemokine (C–C motif) ligand 4 (CCL4),[18] also known as macrophage inflammatory protein (MIP-1β), which promotes recruitment of additional immune cells to inflamed tissues. In the context of cancer, ATF3 activity counters antitumor immunity and promotes tumor growth. We therefore explored the effect of the ATF3W-aeg antagonist peptide on CCL4 expression in M2 anti-inflammatory macrophages differentiated from the human THP-1 monocytic cell line. […]\nFigure 10 ATF3W-aeg peptide stimulates expression of pro-inflammatory cytokine in M2 macrophages. CCL4 protein levels were measured by ELISA from supernatants of M2 macrophage cultures treated with either 20 μM ATF3W-aeg or negative control peptide (****p < 0.0001). […]\nTHP-1 cells were seeded in 12-well format at a concentration of 5 × 10^5 cells/well and treated with 7.5 ng/mL Phorbol 12-Myristate 13-Acetate (PMA, Sigma-Aldrich) in RPMI media supplemented with 10% FBS and 55 μM β-mercaptoethanol (BME). […] After 48 h, supernatants were collected and clarified by centrifugation, and the CCL-4 concentration was assessed by ELISA (MIP-1b Human Instant ELISA Kit, ThermoFisher Scientific) according to the manufacturer’s protocol."}, "ATF3 [3]": {"target": "T1, ATF3", "assay": "Isothermal titration calorimetry (ITC)", "format": "binding", "conditions": "20 °C, pH 7.0", "protocol": "To provide additional insight into the origin of the binding affinity (KD) between ATF3 and ATF3W_aeg, isothermal titration calorimetry (ITC) experiments were performed. […] The free energy of binding was predominantly driven by a favorable enthalpic term (ΔH = −14.6 kcal/mol) and opposed by an unfavorable entropic component (TΔS= −5.33 kcal/mol).\nFigure 9 Isothermal titration calorimetry analysis of the ATF3-ATF3W_aeg interaction. In the bottom plot, the solid line represents the fit to the data based on the binding of a ligand to a macromolecule using the MicroCal (GE Healthcare) Origin software.[16] See Materials and Methods for further details.\nITC measurements were made using a Microcal PEAQ-ITC instrument with data collected and processed using the Origin 7.0 software package.[14],[23] All measurements were carried out at least twice. Briefly, all peptides were studied at 20 °C in 10 mM potassium phosphate and 100 mM potassium fluoride at pH 7.0. 40 μL of ATF3W_aeg was loaded into the syringe at 60 μM peptide concentration. 350 μL of ATF3 was loaded into the cell at 6 μM. The experiment was undertaken by injecting 2 μL of ATF3W_aeg 19 times into the calorimetric cell. Following ITC measurements, the data were fit to a one-site model."}, "ATF3 [4]": {"target": "T1, ATF3", "assay": "Size-exclusion chromatography of ATF3-ATF3W_aeg mixture", "format": "binding", "conditions": "Superdex Peptide 10/300 GL, RT; 20 μM total peptide", "protocol": "During SEC experiments, monomeric ATF3 (Figure 8, blue line) and ATF3W_aeg (Figure 8, green line) eluted at approximately 20 min. These contrast with the dimeric profile observed for ATF3-ATF3W_aeg (Figure 8, black line), which occurred at approximately 19 min. For all samples, elution profiles were consistent with either a validated monomer or dimer elution pattern.[15]\nFigure 8 SEC profiles indicate that ATF3W_aeg binds ATF3. Shown are size exclusion chromatography profiles for interacting peptides. The peak at approx 19 min for the ATF3-ATF3W_aeg mixture (black trace) represents a dimeric sample while ATF3 (blue trace) and ATF3W_aeg (green trace) generate a peak at approx 20 min, indicating the presence of a monomer. These experiments, undertaken at a total peptide concentration of 20 μM, provide additional evidence for selectivity of the ATF3-ATF3W_aeg interaction. Arrows show controls from previous peptides with elution times for a 32 mer Fos monomeric peptide (20 min) and a 37 mer cJun–FosW heterodimer (18.5 min).[15]\nSize-exclusion experiments were performed at RT using a Superdex Peptide 10/300 GL column (GE Healthcare Life Sciences) as described previously.[23]"}},
  "data": [
    {"substance": "Ac-ELAALEQKAYALKQENAALEKEVAALEQKIAALK-NH2 (N-terminus and C-terminus assumed) [ATF3W_aeg]", "values": [
      {"measurement": "transition midpoint (Tm) of heterodimer with ATF3", "setting": "ATF3 [1]", "value": 60, "unit": "°C"},
      {"measurement": "effect on CCL4 expression (protein in supernatant, ELISA)", "setting": "[2]", "value": "significantly increased CCL4 expression"},
      {"measurement": "N (sites), stoichiometry of binding to ATF3", "setting": "ATF3 [3]", "value": 0.72},
      {"measurement": "TΔS of binding to ATF3", "setting": "ATF3 [3]", "value": -5.33, "unit": "kcal/mol"},
      {"measurement": "ΔG of binding to ATF3", "setting": "ATF3 [3]", "value": -9.31, "unit": "kcal/mol"},
      {"measurement": "ΔH of binding to ATF3", "setting": "ATF3 [3]", "value": -14.6, "unit": "kcal/mol"},
      {"measurement": "SEC elution time of ATF3-ATF3W_aeg mixture", "setting": "ATF3 [4]", "value": "approximately 19 min"},
      {"measurement": "oligomeric state of ATF3-ATF3W_aeg interaction by SEC", "setting": "ATF3 [4]", "value": "exclusively dimeric"}
    ]}
  ]
}
